Patent publication US9193762B2, “Selective inhibitors of prolylcarboxypeptidase” (UNIVERSITY OF MISSISSIPPI, priority 2010, dated 2015)
Entries after “also recorded” stand apart in the source; their conditions may differ. Each block holds one molecule with its values, some of them ahead of it. Where a SMILES comes first, the peptide text is derived from it. The star is where a group is joined. Cbz = O=C(OCc1ccccc1)*

Experiments:
[1] = target: recombinant prolylcarboxypeptidase (rPRCP) (Homo sapiens (Human), UniProt P42785); test: chromogenic enzyme assay of rPRCP with Ala-Pro-p-nitroaniline (APpNA); type: biochemical
recombinant prolylcarboxypeptidase (rPRCP), sequence (P42785 46-496): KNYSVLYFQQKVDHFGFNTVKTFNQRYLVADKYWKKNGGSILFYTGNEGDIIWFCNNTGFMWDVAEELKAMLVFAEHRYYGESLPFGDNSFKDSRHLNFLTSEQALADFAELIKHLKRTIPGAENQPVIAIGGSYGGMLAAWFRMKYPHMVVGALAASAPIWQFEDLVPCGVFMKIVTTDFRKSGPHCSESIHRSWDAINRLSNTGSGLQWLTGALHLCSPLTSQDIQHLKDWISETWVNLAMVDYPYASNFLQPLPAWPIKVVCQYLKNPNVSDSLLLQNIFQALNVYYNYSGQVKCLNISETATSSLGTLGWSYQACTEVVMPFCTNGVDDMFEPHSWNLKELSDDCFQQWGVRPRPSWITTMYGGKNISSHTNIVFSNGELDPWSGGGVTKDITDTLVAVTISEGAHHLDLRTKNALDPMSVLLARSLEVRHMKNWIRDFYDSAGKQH
Protocol: Applicants utilized two assays to evaluate the putative PRCP inhibitors; 1.) a chromogenic enzyme assay, that involved the continual monitoring [60 min] for the production of p-nitroaniline derived from rPRCP-catalyzed conversion of Ala-Pro-p-nitroaniline (APpNA) in the presence of inhibitor and; 2.) a cell-based assay measuring the PRCP-dependent PK activation on human pulmonary artery endothelial cells (HPAEC). […] The effects of the inhibitors of PRCP were determined using a previously published method^31. Briefly, rPRCP was incubated in the presence or absence of various PRCP inhibitors in HEPES-carbonated buffer containing 1 mM Ala-Pro-paranitroaniline (APpNA, a PRCP chromogenic substrate). The final volume was 100 μL and the time of incubation was 60 min. […] Generation of free p-nitroaniline from APpNA was determined by monitoring changes in absorbance at 405 nm. Assays were done a minimum of 3 times.

[2] = test system: PRCP-dependent PK activation on human pulmonary artery endothelial cells (HPAEC)
Protocol: Applicants utilized two assays to evaluate the putative PRCP inhibitors; 1.) a chromogenic enzyme assay, that involved the continual monitoring [60 min] for the production of p-nitroaniline derived from rPRCP-catalyzed conversion of Ala-Pro-p-nitroaniline (APpNA) in the presence of inhibitor and; 2.) a cell-based assay measuring the PRCP-dependent PK activation on human pulmonary artery endothelial cells (HPAEC). […] Human pulmonary artery endothelial cells (HPAEC) were purchased from Invitrogen (Carlsbad, Calif.) and were cultured as previously described.^20 The cells were grown in Dulbecco's Modified Eagle's Medium (DMEM) overnight in 96 well plates (Costar). […] Gelatin blocking buffer (1% Gelatin) was prepared by adding appropriate amount of 5% gelatin stock to HEPES-carbonated buffer as described above. In the first step, gelatin blocking buffer was used to reduce the non specific binding. As part of this step, the cells were incubated with 1% gelatin buffer for 1 hour.

factor XIIa (FXIIa) = factor XIIa (FXIIa) (Homo sapiens (Human), UniProt P00748); test: specificity: serine protease FXIIa; type: biochemical
factor XIIa (FXIIa), sequence (P00748 373-615): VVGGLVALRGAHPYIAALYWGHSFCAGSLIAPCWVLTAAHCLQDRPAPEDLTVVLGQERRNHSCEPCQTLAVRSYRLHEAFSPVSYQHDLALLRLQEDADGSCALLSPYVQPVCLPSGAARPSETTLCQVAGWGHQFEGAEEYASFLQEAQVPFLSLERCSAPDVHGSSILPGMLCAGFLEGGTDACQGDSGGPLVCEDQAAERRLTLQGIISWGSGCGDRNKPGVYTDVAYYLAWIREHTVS

HPAEC permeability = test: in vitro vascular permeability assay, HPAEC monolayer with HK/PK complex; type: cell-based, human
Protocol: The effect of the inhibitors of PRCP on vascular permeability was assessed using an in vitro vascular permeability assay kit (Chemicon/Millipore, Mass.) according to the manufacturer's protocol. Briefly, collagen coating solution in 0.2×PBS, pH 7.1 was added to the inserts. After incubating for 1 h at room temperature, the inserts were hydrated with cell growth medium for 15 min and seeded with 200 μL of cell suspension (1.0×10^6 HPAEC/mL). The plate was incubated at 37° C. for 24 h until a cell monolayer was formed. The inserts were then treated with cell basal medium (negative control); 1 μg/mL LPS (positive control); 0.1 μM HK/PK complex in the absence or presence of HOE-140 (1 μM) and lisinopril (1 μM, […]) and incubated at 37° C. for 18 h. […] The fluorescence was read at an excitation wavelength of 485 nm and an emission wavelength of 528 nm using BioTek Synergy 2 Multi-Mode Microplate Reader.

[3] = target: carboxypeptidase B [CPB, EC 3.4.17.2] (Sus scrofa, UniProt P09955); test: carboxypeptidase B inhibition; type: biochemical
carboxypeptidase B [CPB, EC 3.4.17.2], sequence (P09955 111-416 limits assumed): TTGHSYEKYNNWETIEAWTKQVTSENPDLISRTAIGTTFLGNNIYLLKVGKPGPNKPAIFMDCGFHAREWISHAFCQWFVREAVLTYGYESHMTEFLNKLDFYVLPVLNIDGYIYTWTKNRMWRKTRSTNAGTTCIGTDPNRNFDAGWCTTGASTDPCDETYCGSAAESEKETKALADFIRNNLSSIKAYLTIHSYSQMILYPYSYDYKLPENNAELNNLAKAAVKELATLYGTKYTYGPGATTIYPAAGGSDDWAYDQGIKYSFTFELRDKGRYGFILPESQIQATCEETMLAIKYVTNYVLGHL

[4] = test system: carotid artery thrombosis in FXII−/− mice; test: FeCl3 carotid artery thrombosis model, FXII-deficient mice
Protocol: (§1) C57Bl/6 WT mice and C57Bl/6 mice deficient in factor fXII (FXII^−/−), were used in these studies. The procedures were approved by the Institutional Animal Care and Use Committee of Vanderbilt University. After anesthesia with pentobarbital (50 mg/kg IP), the right common carotid artery was exposed and fitted with a Doppler flow probe (Model 0.5 VB, Transonic System, Ithaca, N.Y.). […] Flow was monitored for 30 min. Mice were sacrificed by pentobarbital overdose after conclusion of the experiment, while under anesthesia.

food intake of mice = test: food intake in fasted mice after i.p. injection; type: in vivo
Protocol: Mice were single housed one week before the experiment. Male mice (n=6 per group; 4 months old) were then food deprived for 24 hours. […] Food intake was measured at 1 hour, 2 hours, 4 hours 8 hours and 24 hours.

[5] = test system: carotid artery thrombosis in wild type C57BL/6 mice; test: FeCl3 carotid artery thrombosis model, wild type mice; conditions: 10 mg/kg IV, 3.5% FeCl3, vs PBS
Protocol: as §1

[6] = target: carboxypeptidase A [CPA, EC 3.4.17.1] (Bos taurus, UniProt P00730); test: carboxypeptidase A inhibition; type: biochemical
carboxypeptidase A [CPA, EC 3.4.17.1], sequence (P00730 111-419 limits assumed): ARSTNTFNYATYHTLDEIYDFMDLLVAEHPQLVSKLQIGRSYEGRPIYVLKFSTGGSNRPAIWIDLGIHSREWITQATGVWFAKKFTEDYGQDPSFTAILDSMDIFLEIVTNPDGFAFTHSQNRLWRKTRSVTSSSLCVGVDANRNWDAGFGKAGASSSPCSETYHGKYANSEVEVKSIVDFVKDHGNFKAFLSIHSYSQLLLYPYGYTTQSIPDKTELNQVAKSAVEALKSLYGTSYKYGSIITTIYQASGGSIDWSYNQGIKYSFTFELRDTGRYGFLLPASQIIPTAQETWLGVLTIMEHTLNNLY
Text: While BK exerts its vasodilatory effect through the bradykinin B2 receptors (BKB2R), des-Arg9-BK (a substrate of PRCP) mediates its effect via the selective bradykinin B1 receptors (BKB1R). […] Carboxypeptidase A (CPA) is a highly conserved protease, which is present in pancreas and the secretory granules of mast cells. Although its substrate selectivity is different than that of PRCP, both CPA and PRCP can cleave the C-terminal aromatic or aliphatic amino acids of proteins or peptides. […] The reaction mixture was incubated at 37° C. for 1 h. The reaction was stopped by the addition of 0.5 M HCl.

factor XIa (FXIa) = factor XIa (FXIa) (Homo sapiens (Human), UniProt P03951); test: specificity: serine protease FXIa; type: biochemical
factor XIa (FXIa), sequence (P03951 388-625): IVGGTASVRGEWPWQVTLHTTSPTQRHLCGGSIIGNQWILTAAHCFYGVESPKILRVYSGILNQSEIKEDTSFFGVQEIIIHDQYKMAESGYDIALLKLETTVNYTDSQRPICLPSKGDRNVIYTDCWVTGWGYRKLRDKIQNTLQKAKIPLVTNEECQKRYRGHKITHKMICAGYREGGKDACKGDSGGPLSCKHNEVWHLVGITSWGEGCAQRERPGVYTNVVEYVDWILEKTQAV
factor XIa (FXIa), sequence (P03951 19-387 partner): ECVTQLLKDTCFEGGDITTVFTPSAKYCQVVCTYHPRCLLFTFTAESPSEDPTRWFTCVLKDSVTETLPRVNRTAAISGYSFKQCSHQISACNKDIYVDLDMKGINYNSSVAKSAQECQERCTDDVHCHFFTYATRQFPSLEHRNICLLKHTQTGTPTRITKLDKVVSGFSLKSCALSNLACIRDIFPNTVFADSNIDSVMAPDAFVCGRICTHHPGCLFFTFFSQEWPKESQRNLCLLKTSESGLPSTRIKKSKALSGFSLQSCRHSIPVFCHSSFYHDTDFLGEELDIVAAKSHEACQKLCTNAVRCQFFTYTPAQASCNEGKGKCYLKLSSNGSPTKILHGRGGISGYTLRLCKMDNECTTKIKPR

[7] = target: CPN (hCPN, partially purified from plasma) (Homo sapiens (Human), UniProt P15169); test: carboxypeptidase CPN, metabolism of hippuryl-lysine; type: biochemical
CPN (hCPN, partially purified from plasma), sequence (P15169 21-458): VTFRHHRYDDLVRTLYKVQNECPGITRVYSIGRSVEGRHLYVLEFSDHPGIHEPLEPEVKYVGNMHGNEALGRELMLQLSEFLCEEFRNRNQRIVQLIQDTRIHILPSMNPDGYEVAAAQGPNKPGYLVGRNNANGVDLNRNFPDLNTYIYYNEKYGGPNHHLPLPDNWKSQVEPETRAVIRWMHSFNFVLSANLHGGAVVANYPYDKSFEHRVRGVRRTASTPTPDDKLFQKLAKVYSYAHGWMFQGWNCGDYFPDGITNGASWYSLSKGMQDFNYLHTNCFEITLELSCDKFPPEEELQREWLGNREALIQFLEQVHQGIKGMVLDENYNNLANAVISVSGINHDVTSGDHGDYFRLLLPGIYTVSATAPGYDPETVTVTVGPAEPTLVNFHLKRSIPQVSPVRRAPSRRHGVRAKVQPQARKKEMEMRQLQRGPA
CPN (hCPN, partially purified from plasma), sequence (P22792 22-545 partner): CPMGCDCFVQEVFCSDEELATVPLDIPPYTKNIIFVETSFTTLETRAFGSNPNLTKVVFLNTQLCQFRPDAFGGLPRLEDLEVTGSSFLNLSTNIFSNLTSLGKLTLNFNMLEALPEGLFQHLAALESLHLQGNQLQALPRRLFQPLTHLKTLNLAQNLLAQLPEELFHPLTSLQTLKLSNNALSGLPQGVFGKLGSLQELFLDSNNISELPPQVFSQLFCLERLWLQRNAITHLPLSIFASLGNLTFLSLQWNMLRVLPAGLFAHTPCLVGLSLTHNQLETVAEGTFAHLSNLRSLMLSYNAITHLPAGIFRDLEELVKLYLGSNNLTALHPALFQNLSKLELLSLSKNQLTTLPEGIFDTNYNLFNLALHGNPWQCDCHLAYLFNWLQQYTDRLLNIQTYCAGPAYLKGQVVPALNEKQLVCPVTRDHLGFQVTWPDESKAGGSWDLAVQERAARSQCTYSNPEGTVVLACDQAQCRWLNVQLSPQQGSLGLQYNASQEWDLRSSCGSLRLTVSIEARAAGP
Text: While BK exerts its vasodilatory effect through the bradykinin B2 receptors (BKB2R), des-Arg9-BK (a substrate of PRCP) mediates its effect via the selective bradykinin B1 receptors (BKB1R). […] Carboxypeptidase A (CPA) is a highly conserved protease, which is present in pancreas and the secretory granules of mast cells. Although its substrate selectivity is different than that of PRCP, both CPA and PRCP can cleave the C-terminal aromatic or aliphatic amino acids of proteins or peptides. […] All values were calculated as percentage of positive control after subtraction of background. […] Commercially available pooled normal human serum was used. The tubes were tightly covered, vortexed for 15 seconds and incubated for 60 min at 37° C. in a shaker water bath. The enzymatic reaction was stopped by addition of 250 μL of 1 M HCl solution and vortexed for 15 seconds. The blanks were stopped immediately after the addition of serum by 250 μL of 1M HCl before incubation. All samples were incubated on ice for 5 min. 1500 μL ethyl acetate was added, vortexed for 30 s and centrifuged for 10 min at 4000 g. 1 mL of the upper layer (ethyl acetate) was transferred into a 5 mL test tube and placed in a boiling water bath for 45-60 min to evaporate the ethyl acetate thoroughly, 3 mL of 1M NaCl solution was added to each tube and vortexed for 30 s. All samples were placed in water bath at 70° C. for 5 min to redissolve all the residual hippuric acid, then vortexed for 30 s. After 15 min of incubation at room temperature, the absorbance of hippuric acid was read at λ=228 nm.
The reaction mixture was incubated at 37° C. for 1 h. The reaction was stopped by the addition of 0.5 M HCl.

CPM = CPM (Homo sapiens (Human), UniProt P14384); test: carboxypeptidase CPM, metabolism of hippuryl-lysine; type: biochemical
CPM, sequence (P14384 18-443, species assumed): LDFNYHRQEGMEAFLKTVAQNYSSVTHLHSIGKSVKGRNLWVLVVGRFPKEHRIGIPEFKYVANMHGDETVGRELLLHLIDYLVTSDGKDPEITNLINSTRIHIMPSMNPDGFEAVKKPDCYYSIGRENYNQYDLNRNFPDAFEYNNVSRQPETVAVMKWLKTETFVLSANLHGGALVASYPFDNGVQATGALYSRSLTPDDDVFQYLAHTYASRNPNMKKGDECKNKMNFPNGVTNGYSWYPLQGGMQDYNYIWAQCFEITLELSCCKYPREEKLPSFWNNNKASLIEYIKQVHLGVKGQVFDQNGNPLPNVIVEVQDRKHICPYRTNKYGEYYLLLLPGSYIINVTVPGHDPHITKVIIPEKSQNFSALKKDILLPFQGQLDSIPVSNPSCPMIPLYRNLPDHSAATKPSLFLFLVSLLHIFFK

[8] = toxicity: 14 metabolic markers in mice; type: in vivo
Text: The blood glucose level was decreased in drug-treated mice (n=3) by 15%.

α-kallikrein = α-kallikrein (Homo sapiens (Human), UniProt P03952); test: specificity: serine protease α-kallikrein; type: biochemical
α-kallikrein, sequence (P03952 391-638): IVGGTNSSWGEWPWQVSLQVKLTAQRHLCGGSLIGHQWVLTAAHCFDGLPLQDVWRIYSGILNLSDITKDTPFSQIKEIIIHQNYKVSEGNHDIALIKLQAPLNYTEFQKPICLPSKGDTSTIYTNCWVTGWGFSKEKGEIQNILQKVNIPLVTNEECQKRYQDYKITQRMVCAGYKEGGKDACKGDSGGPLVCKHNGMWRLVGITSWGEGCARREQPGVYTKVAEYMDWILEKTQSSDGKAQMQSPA
α-kallikrein, sequence (P03952 20-390 partner): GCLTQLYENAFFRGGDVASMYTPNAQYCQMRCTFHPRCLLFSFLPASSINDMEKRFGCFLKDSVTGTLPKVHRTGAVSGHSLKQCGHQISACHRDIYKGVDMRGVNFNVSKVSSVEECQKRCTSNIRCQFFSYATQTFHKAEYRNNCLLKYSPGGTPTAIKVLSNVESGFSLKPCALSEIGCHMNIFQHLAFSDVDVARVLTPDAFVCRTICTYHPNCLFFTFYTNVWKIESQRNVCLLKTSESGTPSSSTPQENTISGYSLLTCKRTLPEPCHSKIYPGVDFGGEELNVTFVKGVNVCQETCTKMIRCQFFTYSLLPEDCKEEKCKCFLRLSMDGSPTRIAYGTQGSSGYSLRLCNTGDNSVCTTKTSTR

trypsin = test: specificity: serine protease trypsin; type: biochemical
[9] = failed to inhibit at these concentrations

Molecule: CCOCCOCCOCCCNC(=O)[C@@H]1CCCN1C(=O)[C@@H]1CCCN1C(=O)OCc1ccccc1 [RS-33-22, (S)-benzyl-2-((S)-2-((3-(2-(2-ethoxyethoxy)ethoxy)propyl)carbamoyl)pyrrolidine-1-carbonyl) pyrrolidine-1-carboxylate]
- rPRCP inhibition (in words) [1]: ineffective
- blocking of PK activation on HPAEC (in words) [2]: ineffective

Molecule: CCCCCCCCCCCCNC(=O)[C@@H]1CCCN1C(=O)[C@@H]1CCCN1.Cl [RS-33-21, (S)—N-dodecyl-1-((S)-pyrrolidine-2-carbonyl)pyrrolidine-2-carboxamide hydrochloride]
- reduction of cell permeability (HPAEC permeability; 100 μM, in the presence of HK/PK (0.1 μM each)): 90%
- BK-induced permeability blocked (HPAEC permeability; concentration not given): 100%
- inhibition of CPB (in words) [3]: not inhibited
- antithrombotic effect (in words) ([4]; FXII deficient mice): evidence for an antithrombotic effect
- mice that did not develop occlusion ([4]; FXII−/− mice, 10 mg/kg IV, 12.5% FeCl3): 4 of 6
- time to start of attenuation of food intake (food intake of mice; i.p.): ≤ 1 h
- food intake at 1 mg/kg (food intake of mice; i.p. 1 mg/kg): lower food intake, although the reduction was not significant at 2, 4, 8, or 24 h
- food intake at 10 mg/kg (food intake of mice; i.p. 10 mg/kg, all time intervals): Significant declines in food intake
- food intake, dose and time dependence (food intake of mice; i.p., 1, 10 or 100 mg/kg, hydrochloride): induced appetite loss that was dose- and time-dependent; also recorded: inhibited food intake; also recorded: reduced food-intake in mice in a dose- and time-dependent fashion; also recorded: reduced food intake in mice in a dose-dependent and time-dependent manner
- food intake at 100 mg/kg (food intake of mice; single i.p. injection 100 mg/kg, 1-24 h, hydrochloride): Significant declines in food intake; also recorded: reduced food intake
- vessel occlusion [5]: did not prevent vessel occlusion
- time to arterial occlusion ([5]; hydrochloride): nor prolong the time to arterial occlusion; also recorded: did not observe shortening of carotid artery occlusion times
- inhibition of CPA (in words) [6]: not inhibited
- concentration at which FXIa was not inhibited (factor XIa (FXIa); [9]): > 1.0 mM
- inhibition of CPN (in words) ([7]; metabolism of hippuryl-lysine): did not inhibit
- inhibition of CPM (in words) (CPM; metabolism of hippuryl-lysine): did not inhibit
- decrease in blood glucose level ([8]; drug-treated mice, n=3): 15%
- glucose levels compared with control mice (in words) ([8]; mice, Table 16): relatively low but not statistically significant
- increase in blood amylase compared to sham animals ([8]; mice, n=3): 20%
- change in electrolyte levels, body water, markers of kidneys and liver ([8]; mice, within 8 h): failed to cause any significant change
- concentration at which kallikrein was not inhibited (α-kallikrein; [9]): > 1.0 mM
- concentration at which FXIIa was not inhibited (factor XIIa (FXIIa); [9]): > 1.0 mM

Molecule: O=C[C@@H]1CCCN1C(=O)[C@@H]1CCCN1C(=O)OCc1ccccc1 [Z-Pro-Pro-OH, 1-[1-(benzyloxycarbonyl)-L-prolyl]prolinal, reference compound] (Cbz-Pro-Pro-aldehyde)
- rPRCP inhibition (in words) [1]: a little effect
- blocking of PK activation on HPAEC (in words) [2]: a little effect

Results, then the molecule that gave them:

- IC50 (factor XIIa (FXIIa)): 0.2 µM
- Ki (factor XIIa (FXIIa)): 0.12 µM
Molecule: corn trypsin inhibitor

- Ki, CPB [3]: 738.5 ηM
- Ki, CPA [6]: 486 ηM
- IC50 [7]: 1000 µM
- Ki [7]: 615 µM
- IC50 (CPM): 640 µM
- Ki (CPM): 394 µM
Molecule: c1cnc2c(c1)ccc1cccnc12 [1,10-phenanthroline]

- IC50 (trypsin): 0.2 µM
- IC50 (factor XIa (FXIa)): 1 µM
- IC50 (α-kallikrein): 10 µM
B1: soybean trypsin inhibitor: soybean trypsin inhibitor (SBTI), comparison inhibitor of kallikrein, FXIa and trypsin (protein, UniProt P01070 25-205, looked up)
Trypsin inhibitor A: DFVLDNEGNPLENGGTYYILSDITAFGGIRAAPTGNERCPLTVVQSRNELDKGIGTIISSPYRIRFIAEGHPLSLKFDSFAVIMLCVGIPTEWSVVEDLPEGPAVKIGENKDAMDGWFRLERVSDDEFNNYKLVFCPQQAEDDKCGDIGISIDHDDGTRRLVVSKNKPLVVQFQKLDKESL
